Reference: patent US20210369677A1, “SMALL MOLECULE ACTIVATORS OF POLYCYSTIN-2 (PKD2) AND USES THEREOF” (Northwestern University, priority 2020, published 2021)

Biological target: T1, polycystin-2 (Homo sapiens, UniProt Q13563)
T1 construct: expressed in transfected cells
T1 sequence (Q13563 1-968): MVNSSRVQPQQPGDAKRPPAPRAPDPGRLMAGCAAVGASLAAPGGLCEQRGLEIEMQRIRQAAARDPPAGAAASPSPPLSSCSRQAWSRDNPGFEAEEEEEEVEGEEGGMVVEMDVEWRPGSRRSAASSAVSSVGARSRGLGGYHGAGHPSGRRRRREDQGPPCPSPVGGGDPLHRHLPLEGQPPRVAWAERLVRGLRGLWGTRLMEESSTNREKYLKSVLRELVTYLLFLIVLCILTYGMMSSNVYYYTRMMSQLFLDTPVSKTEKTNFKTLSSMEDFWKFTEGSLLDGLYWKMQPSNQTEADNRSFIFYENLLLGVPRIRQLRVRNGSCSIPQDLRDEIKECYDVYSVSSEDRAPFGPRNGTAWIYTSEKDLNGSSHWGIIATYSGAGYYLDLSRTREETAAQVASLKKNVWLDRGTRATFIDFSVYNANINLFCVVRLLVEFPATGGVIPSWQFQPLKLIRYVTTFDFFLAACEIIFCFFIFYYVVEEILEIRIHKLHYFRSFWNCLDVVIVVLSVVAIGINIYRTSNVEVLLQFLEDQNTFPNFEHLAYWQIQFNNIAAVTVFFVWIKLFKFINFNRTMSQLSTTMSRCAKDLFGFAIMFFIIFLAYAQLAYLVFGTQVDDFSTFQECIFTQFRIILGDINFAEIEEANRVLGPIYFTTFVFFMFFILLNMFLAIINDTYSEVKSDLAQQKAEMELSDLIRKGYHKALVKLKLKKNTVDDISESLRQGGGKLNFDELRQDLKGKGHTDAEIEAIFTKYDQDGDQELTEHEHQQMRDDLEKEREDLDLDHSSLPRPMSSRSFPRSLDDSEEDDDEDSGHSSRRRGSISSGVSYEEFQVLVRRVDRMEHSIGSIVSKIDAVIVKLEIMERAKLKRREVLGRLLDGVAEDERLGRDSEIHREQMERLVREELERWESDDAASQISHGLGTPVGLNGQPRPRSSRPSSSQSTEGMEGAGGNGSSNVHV
Assay type: cell-based
Settings: for Effect of external disulfide reducing agents on wild type polycystin-2 current: whole cilia configuration
From the text: Generation of HEK PKD2^Null cells line and the stable expression PKD2 variants. To generate the HEK PKD2^Null cell lines, we used a CRISPR/Cas9 gene editing kit available from Addgene (kit 1000000055). HEK 293 cells were electro-transfected with sgRNAs (caccg[…] and aaac[…]c) with the All-in-one Cas9 plasmid. […] Cells generated from single cell clones were selected after 4 weeks of expansion in a 96-wells plate. […] To generate the WT and variant PKD2 GFP or mCherry C-terminally tagged variant cell lines, the hPKD gene was subcloned into lentiviral pLVX-mcherry-N1 (Clontech) or pLVX-GFP-N1 (Clontech) vector using the Gibson assembly method. A linker encoding for six glycine residues was added between the PKD2 gene and the C-terminal tags, and missense variants were generated using standard, site-directed mutagenesis. The third-generation lentiviral packaging plasmids used for stable expression contained: pMDLg/pRRE (Addgene), […] pRSV-Rev (Addgene), and envelope expressing plasmid pMD2.G (Addgene). LentiX-293T cells (Takara) were transfected with polyethylineimine (Polysciences) at a 4:1:1:1 ratio of the transgene and viral packaging constructs. Supernatants were collected 48 and 72 hours post transfection and filtered through a 0.45 μm syringe filter. Lentiviral supernatant was concentrated 100 times using 1 volume of PEG-it (System Biosciences) virus precipitation solution and 4 volume of lentivirus-containing supernatant. The PEG-it and supernatant mixture were kept at 4 degrees for 24 hours and centrifuged at 1500 rpm for 30 minutes. The pellet containing lentivirus was resuspended with 1/100th volume of PBS of the original supernatant volume. HEK cells were infected with the lentivirus supernatant; PKD2-GFP or PKD2-mCherry expression was selected using culture media containing puromycin (2 μg/ml) for 30 to 90 days. Cells were then fluorescence-activated cell sorted (BD FacsMelody) at 5000 to 10,000 counts per minute to enrich for the transgene expression. Stable cell lines were cultured in Dulbecco's modified essential medium (DMEM) supplemented with 10% fetal bovine serum (FBS) and 100 units/ml penicillin, 100 units/ml streptomycin and 1 μg/ml puromycin selection antibiotic.
Electrophysiology. Ciliary ion currents were recorded using borosilicate glass electrodes polished to resistances of 14-22 MΩ using the cilium patch method previously described^32. Whole cell electrodes used to measure poly cystin-2L1 currents were fire polished to 1.5-4 MΩ resistances. Unless otherwise stated, whole cilia ionic currents were recorded in symmetrical [Na^+]. The pipette standard internal solution contained (in mM): 90 NaMES, 10 NaCl, 10 HEPES, 10 Na4-BAPTA (Glycine, N, N′-[1,2-ethanediylbis(oxy-2,1-phenylene)]bis[N-(carboxymethyl)]-,tetrasodium); pH was adjusted to 7.3 using NaOH. Standard bath solution contained 140 NaCl, 10 HEPES, 1.8 CaCl2); pH 7.4. All solutions were osmotically balanced to 295 (±6) mOsm with mannitol. Extracellular solutions containing TCEP and GSH were used within six hours of formulation. Data were collected using an Axopatch 200B patch clamp amplifier, Digidata 1440A, and pClamp 10 software. Whole-cilium and excised patch currents were digitized at 25 kHz and low-pass filtered at 10 kHz. In the whole cilium configuration, the holding potential was −60 mV and then depolarized using a 400 ms voltage ramp from −100 mV to 100 mV. The whole cell recordings of polycystin-2L1 currents were either activated by the same ramp protocol or by 100 ms depolarizations to 100 mV from a −100 mV holding potential.

Row | SMILES | Block of ciliary WT polycystin-2 currents by trivalent ions (10 μM, voltage ramps) | Effect of external disulfide reducing agents on wild type polycystin-2 current
1 | [Gd] [gadolinium] | blocked | –
2 | O=C(O)CCP(CCC(=O)O)CCC(=O)O [TCEP, tris-2-carboxyethyl phosphine] | – | near instantaneous reduction
3 | N[C@@H](CCC(=O)N[C@@H](CS)C(=O)NCC(=O)O)C(=O)O [GSH, reduced glutathione] | – | near instantaneous reduction
